Drawing on patent publication US9783527B2, “Indazole ureas and method of use” (AbbVie Inc., priority 2014, dated 2017), this text covers IC50 for 36 molecules.

Structures are written as SMILES. pIC50: −log10 of the molar value.

human Nav1.7, sequence (Q15858 whole entry): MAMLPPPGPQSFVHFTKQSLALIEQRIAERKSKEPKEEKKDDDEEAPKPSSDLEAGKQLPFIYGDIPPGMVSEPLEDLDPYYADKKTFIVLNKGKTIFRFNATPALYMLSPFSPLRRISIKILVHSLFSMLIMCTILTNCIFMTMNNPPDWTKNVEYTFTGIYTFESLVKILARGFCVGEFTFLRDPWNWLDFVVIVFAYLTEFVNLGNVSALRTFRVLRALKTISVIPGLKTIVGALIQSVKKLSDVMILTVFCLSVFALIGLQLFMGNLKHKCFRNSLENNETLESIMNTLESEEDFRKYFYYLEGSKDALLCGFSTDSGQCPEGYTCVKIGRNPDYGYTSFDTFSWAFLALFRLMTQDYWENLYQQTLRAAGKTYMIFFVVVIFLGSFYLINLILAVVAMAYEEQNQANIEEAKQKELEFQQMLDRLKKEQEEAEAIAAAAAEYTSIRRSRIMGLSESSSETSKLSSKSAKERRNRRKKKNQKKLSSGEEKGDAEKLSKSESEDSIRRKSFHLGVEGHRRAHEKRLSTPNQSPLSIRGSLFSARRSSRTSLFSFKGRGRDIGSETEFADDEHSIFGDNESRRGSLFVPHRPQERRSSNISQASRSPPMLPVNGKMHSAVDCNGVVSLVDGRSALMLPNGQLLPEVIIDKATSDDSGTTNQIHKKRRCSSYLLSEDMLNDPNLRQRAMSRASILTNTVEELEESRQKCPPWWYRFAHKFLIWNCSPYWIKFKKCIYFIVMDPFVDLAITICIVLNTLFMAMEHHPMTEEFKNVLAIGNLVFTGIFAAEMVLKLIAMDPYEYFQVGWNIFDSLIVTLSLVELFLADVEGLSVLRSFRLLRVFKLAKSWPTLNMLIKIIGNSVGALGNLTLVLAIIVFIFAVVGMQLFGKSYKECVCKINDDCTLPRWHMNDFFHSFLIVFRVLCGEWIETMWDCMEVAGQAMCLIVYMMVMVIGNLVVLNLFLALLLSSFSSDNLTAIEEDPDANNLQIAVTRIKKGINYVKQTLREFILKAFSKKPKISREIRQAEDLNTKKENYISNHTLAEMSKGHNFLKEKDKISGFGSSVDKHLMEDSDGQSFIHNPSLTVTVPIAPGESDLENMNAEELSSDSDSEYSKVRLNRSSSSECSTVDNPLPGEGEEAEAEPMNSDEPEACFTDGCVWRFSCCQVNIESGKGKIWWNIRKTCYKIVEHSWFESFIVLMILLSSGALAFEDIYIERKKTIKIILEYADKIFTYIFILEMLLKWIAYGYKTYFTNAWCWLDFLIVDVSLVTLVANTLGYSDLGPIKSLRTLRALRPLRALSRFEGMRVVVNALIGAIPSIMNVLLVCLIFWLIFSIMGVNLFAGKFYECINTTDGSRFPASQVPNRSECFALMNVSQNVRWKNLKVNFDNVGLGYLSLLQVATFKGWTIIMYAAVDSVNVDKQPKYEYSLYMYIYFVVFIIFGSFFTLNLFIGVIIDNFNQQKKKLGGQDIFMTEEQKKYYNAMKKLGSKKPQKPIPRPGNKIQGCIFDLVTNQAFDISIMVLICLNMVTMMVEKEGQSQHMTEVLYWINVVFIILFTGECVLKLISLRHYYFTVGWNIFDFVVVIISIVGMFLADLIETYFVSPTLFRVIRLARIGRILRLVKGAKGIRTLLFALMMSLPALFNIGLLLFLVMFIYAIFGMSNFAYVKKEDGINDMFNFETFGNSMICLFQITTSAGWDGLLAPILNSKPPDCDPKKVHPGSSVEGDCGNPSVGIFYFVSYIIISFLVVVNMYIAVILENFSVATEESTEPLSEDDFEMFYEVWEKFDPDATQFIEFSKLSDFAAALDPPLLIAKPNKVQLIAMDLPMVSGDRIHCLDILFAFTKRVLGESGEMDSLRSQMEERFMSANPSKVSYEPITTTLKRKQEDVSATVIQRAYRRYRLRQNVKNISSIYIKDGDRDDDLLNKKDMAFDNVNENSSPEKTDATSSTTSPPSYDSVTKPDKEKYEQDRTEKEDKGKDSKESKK

This test has as its target human Nav1.7 (Homo sapiens (Human), UniProt Q15858). Briefly: FRET-based membrane potential assay, recombinant human sodium channel Nav1.7. It counts as cell-based. The note with it: HEK293 cells stably expressing recombinant human Nav1.7; depolarization with veratridine (EC80) + scorpion venom. A digest of the protocol:
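IC50 derived by four-parameter Hill fit of percent inhibition of depolarization, measured as peak F440-480/F565-625 ratio over baseline. Stable human Nav1.7 HEK293 cells, dye-loaded with CC2-DMPE and DiSBAC2(3)/VABSC-1 at room temperature, received compound 3 min ahead of veratridine (EC80) plus scorpion venom.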
Turning to `COc1cncc(N2CCN(c3cccc4c3cnn4-c3ccccc3F)C2=O)c1` [Example 230, 1-[1-(2-fluorophenyl)-1H-indazol-4-yl]-3-(5-methoxypyridin-3-yl)imidazolidin-2-one], the pIC50 is 5.43.
In the case of `O=C1N(Cc2cnco2)CCN1c1cccc2c1cnn2-c1ccccc1F` [Example 231, 1-[1-(2-fluorophenyl)-1H-indazol-4-yl]-3-(1,3-oxazol-5-ylmethyl)imidazolidin-2-one], the pIC50 was 5.44.
With `O=C1C(N2CCN(c3cccc4c3cnn4-c3ccccc3F)C2=O)CCN1Cc1ccccc1` (stereo not drawn) [Example 232, 1-(1-benzyl-2-oxopyrrolidin-3-yl)-3-[1-(2-fluorophenyl)-1H-indazol-4-yl]imidazolidin-2-one], the negative logarithm of the IC50 (pIC50) was 5.94.
On to `CC(C)(C)c1cnc(CN2CCN(c3cccc4c3cnn4-c3ccccc3F)C2=O)o1` [Example 233, 1-[(5-tert-butyl-1,3-oxazol-2-yl)methyl]-3-[1-(2-fluorophenyl)-1H-indazol-4-yl]imidazolidin-2-one], for which the negative logarithm of the IC50 (pIC50) was 5.99.
As to `Cc1nnc(CN2CCN(c3cccc4c3cnn4-c3ccc(F)cc3F)C2=O)s1` [Example 234, 1-[1-(2,4-difluorophenyl)-1H-indazol-4-yl]-3-[(5-methyl-1,3,4-thiadiazol-2-yl)methyl]imidazolidin-2-one], the negative logarithm of the IC50 (pIC50) was 5.54.
Take `O=C1N(Cc2ncco2)CCN1c1cccc2c1cnn2-c1ccc(C(F)(F)F)cc1` [Example 235, 1-(1,3-oxazol-2-ylmethyl)-3-{1-[4-(trifluoromethyl)phenyl]-1H-indazol-4-yl}imidazolidin-2-one]: the pIC50 is 5.95.
As to `Cc1noc(C)c1N1CCN(c2cccc3c2cnn3-c2ccccc2F)C1=O` [Example 236, 1-(3,5-dimethyl-1,2-oxazol-4-yl)-3-[1-(2-fluorophenyl)-1H-indazol-4-yl]imidazolidin-2-one], the pIC50 was 6.03.
The result for `CC(C)c1cnc(CN2CCN(c3cccc4c3cnn4-c3ccccc3F)C2=O)o1` [Example 237, 1-[1-(2-fluorophenyl)-1H-indazol-4-yl]-3-[(5-isopropyl-1,3-oxazol-2-yl)methyl]imidazolidin-2-one] reads 6.18.
Next, `Cc1nc(CN2CCN(c3cccc4c3cnn4-c3ccccc3F)C2=O)oc1C` [Example 238, 1-[(4,5-dimethyl-1,3-oxazol-2-yl)methyl]-3-[1-(2-fluorophenyl)-1H-indazol-4-yl]imidazolidin-2-one]: 6.23; `Cc1nc(CN2CCN(c3cccc4c3cnn4-c3ccccc3F)C2=O)c(C)s1` [Example 239, 1-[(2,5-dimethyl-1,3-thiazol-4-yl)methyl]-3-[1-(2-fluorophenyl)-1H-indazol-4-yl]imidazolidin-2-one]: 6.45; `Cc1nnc(CN2CCN(c3cccc4c3cnn4-c3ccc(C(F)(F)F)cc3)C2=O)s1` [Example 240, 1-[(5-methyl-1,3,4-thiadiazol-2-yl)methyl]-3-{1-[4-(trifluoromethyl)phenyl]-1H-indazol-4-yl}imidazolidin-2-one]: 4.87.
Take `C[C@@H]1CN(c2cccc3c2cnn3-c2ccccc2F)C(=O)N1C(=O)OC(C)(C)C` [Example 241, tert-butyl (5R)-3-[1-(2-fluorophenyl)-1H-indazol-4-yl]-5-methyl-2-oxoimidazolidine-1-carboxylate]: the negative-log IC50 (pIC50) was 5.63.
In the case of `O=C1N(Cc2cocn2)CCN1c1cccc2c1cnn2-c1ccc(C(F)(F)F)cc1` [Example 242, 1-(1,3-oxazol-4-ylmethyl)-3-{1-[4-(trifluoromethyl)phenyl]-1H-indazol-4-yl}imidazolidin-2-one], the pIC50 was 5.48.
Regarding `Cc1nc(CN2CCN(c3cccc4c3cnn4-c3ccc(F)cc3F)C2=O)cs1` [Example 243, 1-[1-(2,4-difluorophenyl)-1H-indazol-4-yl]-3-[(2-methyl-1,3-thiazol-4-yl)methyl]imidazolidin-2-one], the pIC50 is 5.79.
With `Cc1cc(CN2CCN(c3cccc4c3cnn4-c3ccccc3F)C2=O)on1` [Example 244, 1-[1-(2-fluorophenyl)-1H-indazol-4-yl]-3-[(3-methyl-1,2-oxazol-5-yl)methyl]imidazolidin-2-one], the negative logarithm of the IC50 (pIC50) was 5.51.
For `Cc1scnc1CN1CCN(c2cccc3c2cnn3-c2ccccc2F)C1=O` [Example 245, 1-[1-(2-fluorophenyl)-1H-indazol-4-yl]-3-[(5-methyl-1,3-thiazol-4-yl)methyl]imidazolidin-2-one], the pIC50 was 6.68.
Consider `C[C@@H]1CN(c2cccc3c2cnn3-c2ccccc2F)C(=O)N1` [Example 246, (4R)-1-[1-(2-fluorophenyl)-1H-indazol-4-yl]-4-methylimidazolidin-2-one], for which the pIC50 is 5.53.
In the case of `C[C@@H]1CN(c2cccc3c2cnn3-c2ccccc2F)C(=O)N1Cc1ncco1` [Example 247, (4R)-1-[1-(2-fluorophenyl)-1H-indazol-4-yl]-4-methyl-3-(1,3-oxazol-2-ylmethyl)imidazolidin-2-one], the pIC50 was 6.01.
For `COc1nccnc1CN1CCN(c2cccc3c2cnn3-c2ccccc2F)C1=O` [Example 248, 1-[1-(2-fluorophenyl)-1H-indazol-4-yl]-3-[(3-methoxypyrazin-2-yl)methyl]imidazolidin-2-one], the pIC50 is 5.98.
For `CC(C)c1cc(CN2CCN(c3cccc4c3cnn4-c3ccccc3F)C2=O)on1` [Example 249, 1-[1-(2-fluorophenyl)-1H-indazol-4-yl]-3-[(3-isopropyl-1,2-oxazol-5-yl)methyl]imidazolidin-2-one], the negative logarithm of the IC50 (pIC50) was 5.61.
The result for `CCc1nc(CN2CCN(c3cccc4c3cnn4-c3ccccc3F)C2=O)cs1` [Example 250, 1-[(2-ethyl-1,3-thiazol-4-yl)methyl]-3-[1-(2-fluorophenyl)-1H-indazol-4-yl]imidazolidin-2-one] reads 5.94.
As for `CC(C)c1cc(CN2CCN(c3cccc4c3cnn4-c3ccccc3F)C2=O)no1` [Example 251, 1-[1-(2-fluorophenyl)-1H-indazol-4-yl]-3-[(5-isopropyl-1,2-oxazol-3-yl)methyl]imidazolidin-2-one], the negative-log IC50 (pIC50) was 5.69.
Regarding `O=C1N(Cc2cc(C3CC3)on2)CCN1c1cccc2c1cnn2-c1ccccc1F` [Example 252, 1-[(5-cyclopropyl-1,2-oxazol-3-yl)methyl]-3-[1-(2-fluorophenyl)-1H-indazol-4-yl]imidazolidin-2-one], the pIC50 is 5.75.
Turning to `Cc1noc([C@@H](C)N2CCN(c3cccc4c3cnn4-c3ccc(F)cc3F)C2=O)n1` [Example 253, 1-[1-(2,4-difluorophenyl)-1H-indazol-4-yl]-3-[(1R)-1-(3-methyl-1,2,4-oxadiazol-5-yl)ethyl]imidazolidin-2-one], the pIC50 was 6.03.
With `COCc1nc(CN2CCN(c3cccc4c3cnn4-c3ccccc3F)C2=O)cs1` [Example 254, 1-[1-(2-fluorophenyl)-1H-indazol-4-yl]-3-{[2-(methoxymethyl)-1,3-thiazol-4-yl]methyl}imidazolidin-2-one], the pIC50 is 6.08.
Next, `O=C1N(Cc2ncco2)CCCN1c1cccc2c1cnn2-c1ccccc1F` [Example 255, 1-[1-(2-fluorophenyl)-1H-indazol-4-yl]-3-(1,3-oxazol-2-ylmethyl)tetrahydropyrimidin-2(1H)-one]: 5.26.
Regarding `CC(C)c1nnc(CN2CCN(c3cccc4c3cnn4-c3ccccc3F)C2=O)o1` [Example 256, 1-[1-(2-fluorophenyl)-1H-indazol-4-yl]-3-[(5-isopropyl-1,3,4-oxadiazol-2-yl)methyl]imidazolidin-2-one], the negative logarithm of the IC50 (pIC50) is 5.51.
In the case of `Cc1cnc(CN2CCN(c3cccc4c3cnn4-c3ccccc3F)C2=O)cn1` [Example 257, 1-[1-(2-fluorophenyl)-1H-indazol-4-yl]-3-[(5-methylpyrazin-2-yl)methyl]imidazolidin-2-one], the pIC50 was 5.51.
Take `Cc1noc(C)c1CN1CCCN(c2cccc3c2cnn3-c2ccccc2F)C1=O` [Example 258, 1-[(3,5-dimethyl-1,2-oxazol-4-yl)methyl]-3-[1-(2-fluorophenyl)-1H-indazol-4-yl]tetrahydropyrimidin-2(1H)-one]: the negative logarithm of the IC50 (pIC50) was 4.96.
With `Cc1cncc(CN2CCCN(c3cccc4c3cnn4-c3ccccc3F)C2=O)n1` [Example 259, 1-[1-(2-fluorophenyl)-1H-indazol-4-yl]-3-[(6-methylpyrazin-2-yl)methyl]tetrahydropyrimidin-2(1H)-one], the negative-log IC50 (pIC50) is 5.47.
As to `Cc1nnc(CN2CCCN(c3cccc4c3cnn4-c3ccccc3F)C2=O)o1` [Example 260, 1-[1-(2-fluorophenyl)-1H-indazol-4-yl]-3-[(5-methyl-1,3,4-oxadiazol-2-yl)methyl]tetrahydropyrimidin-2(1H)-one], the negative logarithm of the IC50 (pIC50) was 4.70.
With `CCc1nnc(CN2CCN(c3cccc4c3cnn4-c3ccccc3F)C2=O)o1` [Example 261, 1-[(5-ethyl-1,3,4-oxadiazol-2-yl)methyl]-3-[1-(2-fluorophenyl)-1H-indazol-4-yl]imidazolidin-2-one], the pIC50 was 5.47.
With `CC(C)(C)c1nnc(CN2CCN(c3cccc4c3cnn4-c3ccccc3F)C2=O)o1` [Example 262, 1-[(5-tert-butyl-1,3,4-oxadiazol-2-yl)methyl]-3-[1-(2-fluorophenyl)-1H-indazol-4-yl]imidazolidin-2-one], the pIC50 was 5.60.
Turning to `Cc1cnc(CN2CCN(c3cccc4c3cnn4-c3ccccc3F)C2=O)s1` [Example 263, 1-[1-(2-fluorophenyl)-1H-indazol-4-yl]-3-[(5-methyl-1,3-thiazol-2-yl)methyl]imidazolidin-2-one], the pIC50 was 6.31.
Regarding `Cc1nocc1CN1CCN(c2cccc3c2cnn3-c2ccccc2F)C1=O` [Example 264, 1-[1-(2-fluorophenyl)-1H-indazol-4-yl]-3-[(3-methyl-1,2-oxazol-4-yl)methyl]imidazolidin-2-one], the negative logarithm of the IC50 (pIC50) is 5.47.
For the molecule `O=C1N(c2cccc3c2cnn3-c2ccccc2F)CCN1[C@H]1CC[C@H](O)CC1` [Example 265, 1-[1-(2-fluorophenyl)-1H-indazol-4-yl]-3-(trans-4-hydroxycyclohexyl)imidazolidin-2-one], the negative-log IC50 (pIC50) is 5.09.

For orientation: pIC50 means −log10 of the IC50, conventionally taken in molar units.
